Laboratory results from patent US5885985A, “Guanidine derivatives useful in therapy” (priority 1993, dated 1999).
Counter-ions that a name gives are not always drawn.

Experiments:
[1] = molecular target: T1, endothelial isoform of nitric oxide synthetase (Homo sapiens, UniProt P29474); assay: Screen for Endothelial Nitric Oxide Synthase Inhibition Activity; format: biochemical
T1 construct: Enzyme may be isolated from human umbilical vein endothelial cells (HUVECs); host or cells: human umbilical vein endothelial cells (HUVECs), CHAPS-solubilised particulate fraction
T1 sequence (P29474 2-1203): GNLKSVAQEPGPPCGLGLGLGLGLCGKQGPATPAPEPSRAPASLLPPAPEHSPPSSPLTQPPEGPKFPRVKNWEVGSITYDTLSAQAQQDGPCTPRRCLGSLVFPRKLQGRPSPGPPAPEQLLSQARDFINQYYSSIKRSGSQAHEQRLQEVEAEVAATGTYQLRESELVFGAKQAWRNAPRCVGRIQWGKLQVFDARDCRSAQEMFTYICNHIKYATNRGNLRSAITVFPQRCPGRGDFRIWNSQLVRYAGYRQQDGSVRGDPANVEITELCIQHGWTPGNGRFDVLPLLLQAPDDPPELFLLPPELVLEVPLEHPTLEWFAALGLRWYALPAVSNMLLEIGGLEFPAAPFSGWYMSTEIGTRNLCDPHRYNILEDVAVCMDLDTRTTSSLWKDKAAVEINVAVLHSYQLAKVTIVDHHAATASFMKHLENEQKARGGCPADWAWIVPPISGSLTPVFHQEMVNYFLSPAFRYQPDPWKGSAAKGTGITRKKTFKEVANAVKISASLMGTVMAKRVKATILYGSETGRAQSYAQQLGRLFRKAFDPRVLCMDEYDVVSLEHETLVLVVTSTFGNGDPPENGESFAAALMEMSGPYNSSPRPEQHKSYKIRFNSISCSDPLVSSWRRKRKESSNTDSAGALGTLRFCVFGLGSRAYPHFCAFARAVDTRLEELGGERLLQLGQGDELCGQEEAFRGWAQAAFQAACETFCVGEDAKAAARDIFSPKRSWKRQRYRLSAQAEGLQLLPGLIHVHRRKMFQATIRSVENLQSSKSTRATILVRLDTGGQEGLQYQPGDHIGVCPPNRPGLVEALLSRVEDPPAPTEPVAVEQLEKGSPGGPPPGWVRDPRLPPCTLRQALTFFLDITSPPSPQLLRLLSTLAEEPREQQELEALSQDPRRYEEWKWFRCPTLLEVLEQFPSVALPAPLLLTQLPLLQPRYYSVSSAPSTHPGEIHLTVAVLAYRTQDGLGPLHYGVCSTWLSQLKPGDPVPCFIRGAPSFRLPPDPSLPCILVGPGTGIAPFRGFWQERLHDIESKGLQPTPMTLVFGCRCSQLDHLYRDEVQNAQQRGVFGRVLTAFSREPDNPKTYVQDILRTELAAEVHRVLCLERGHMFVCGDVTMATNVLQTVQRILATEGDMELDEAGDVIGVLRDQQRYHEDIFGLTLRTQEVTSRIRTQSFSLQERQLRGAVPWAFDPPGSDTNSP

[2] = molecular target: T2, neuronal isoform of nitric oxide synthetase (Rattus norvegicus, UniProt P29476); assay: biochemical; details: enzyme from rat hippocampus or cerebellum; 22° C., 10 minutes; read-out: IC50 in the screen for activity against the neuronal isoform of nitric oxide synthetase
T2 construct: Enzyme was isolated from rat hippocampus or cerebellum; from tissue; host or cells: hippocampus or cerebellum of male Sprague-Dawley rat (20,000 g supernatant)
T2 sequence (P29476 whole entry, canonical isoform): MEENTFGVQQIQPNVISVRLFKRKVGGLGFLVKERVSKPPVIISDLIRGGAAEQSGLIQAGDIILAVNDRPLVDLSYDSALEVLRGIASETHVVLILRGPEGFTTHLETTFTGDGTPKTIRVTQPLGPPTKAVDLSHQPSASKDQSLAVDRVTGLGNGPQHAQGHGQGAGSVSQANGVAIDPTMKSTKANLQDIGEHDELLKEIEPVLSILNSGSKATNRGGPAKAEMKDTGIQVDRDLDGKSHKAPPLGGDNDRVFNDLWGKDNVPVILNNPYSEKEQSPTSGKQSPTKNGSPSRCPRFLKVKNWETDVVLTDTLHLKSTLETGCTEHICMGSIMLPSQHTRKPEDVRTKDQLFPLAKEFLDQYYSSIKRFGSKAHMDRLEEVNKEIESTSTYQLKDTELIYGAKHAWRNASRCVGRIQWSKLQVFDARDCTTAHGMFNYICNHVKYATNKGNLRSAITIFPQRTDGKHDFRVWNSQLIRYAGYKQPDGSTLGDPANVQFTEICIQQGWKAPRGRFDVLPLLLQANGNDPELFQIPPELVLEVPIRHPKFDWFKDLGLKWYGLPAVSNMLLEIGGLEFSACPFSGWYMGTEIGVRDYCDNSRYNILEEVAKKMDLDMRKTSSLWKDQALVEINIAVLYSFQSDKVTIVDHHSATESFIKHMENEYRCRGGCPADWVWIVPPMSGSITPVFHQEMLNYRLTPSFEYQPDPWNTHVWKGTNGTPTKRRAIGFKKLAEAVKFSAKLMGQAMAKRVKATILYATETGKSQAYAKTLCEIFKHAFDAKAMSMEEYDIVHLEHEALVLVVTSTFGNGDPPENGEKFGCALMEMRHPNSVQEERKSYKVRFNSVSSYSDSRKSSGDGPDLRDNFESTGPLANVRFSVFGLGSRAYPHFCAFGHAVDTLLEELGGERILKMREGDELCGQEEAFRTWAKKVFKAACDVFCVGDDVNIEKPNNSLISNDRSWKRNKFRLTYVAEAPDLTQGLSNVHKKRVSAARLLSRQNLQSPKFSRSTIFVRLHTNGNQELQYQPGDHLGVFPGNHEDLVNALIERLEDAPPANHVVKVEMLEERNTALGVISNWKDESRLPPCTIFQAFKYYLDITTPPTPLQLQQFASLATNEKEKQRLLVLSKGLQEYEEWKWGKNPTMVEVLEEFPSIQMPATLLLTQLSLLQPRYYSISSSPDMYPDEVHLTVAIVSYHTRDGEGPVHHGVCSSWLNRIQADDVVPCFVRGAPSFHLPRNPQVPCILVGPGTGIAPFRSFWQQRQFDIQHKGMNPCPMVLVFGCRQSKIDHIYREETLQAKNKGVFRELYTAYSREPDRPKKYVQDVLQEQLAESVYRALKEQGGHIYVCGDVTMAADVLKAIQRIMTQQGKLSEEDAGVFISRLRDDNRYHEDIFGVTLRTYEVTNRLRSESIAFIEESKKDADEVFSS

[3] = molecular target: T3, macrophage isoform of nitric oxide synthetase (Mus musculus, UniProt P29477); assay: Screen for Macrophage Nitric Oxide Synthase Inhibition Activity; format: biochemical; details: lysate of induced murine J774A-1 cells; 1 hour at room temperature; read-out: IC50 in the screen for activity against the macrophage isoform of nitric oxide synthetase
T3 construct: endogenous in cells; host or cells: murine macrophage cell line J774A-1 (from laboratories of the Imperial Cancer Research Fund), induced with LPS and IFN-gamma
From the text: The enzyme nitric oxide synthetase has a number of isoforms and compounds of formula I, or a pharmaceutically acceptable salt thereof, may be screened for nitric oxide synthetase inhibition activity by procedures based on those of Bredt and Snyder in Proc. Natl. Acad. Sci. (1990) 87, 682-685 and Forstermann et. al. (1992) Eur. J. Pharm. 225, 161-165. Nitric oxide synthetase converts ^3 H-L-arginine to ^3 H-L-citrulline which can be separated by cation exchange chromatography and quantified by liquid scintillation counting.
(2) Screen for Macrophage Nitric Oxide Synthase Inhibition Activity
Enzyme is prepared, after induction, from the cultured murine macrophage cell line J774A-1 (obtained from laboratories of the Imperial Cancer Research Fund). J774A-1 cells are cultured in Dulbecco's Modified Eagles Medium (DMEM) supplemented with 10% foetal bovine serum, 4 mM L-glutamine and antibiotics (100 units/ml penicillin G, 100 μg/ml streptomycin & 0.25 μg/ml amphotericin B). Cells are routinely grown in […] flasks containing 35 ml medium kept at 37° C. and in a humidified atmosphere containing 5% CO2.
Nitric oxide synthase is produced by cells in response to inferferon-γ(IFNγ) and lipopolysaccharide (LPS). […]
Labelled L-citrulline is separated from labelled L-arginine using Dowex AG-50W. […] After allowing the samples to dry the L-citrulline is quantified by scintillation counting. […]

IC50 ([1]; enzyme from HUVECs, 22° C., 10 minutes, read-out: IC50 in the screen for activity against the endothelial isoform of nitric oxide synthetase) | IC50 [2] | IC50 [3] | inhibition at 1 µM ([1]; at a concentration of 1 μM, reference standard) | Compound
> 100 µM | < 10 µM | > 100 µM |  | CC(=O)Nc1cccc(NC(=N)N2CCCC2)c1 [Example 1, N-(3-((methylcarbonyl)amino)phenyl)-1-pyrrolidinecarboximidamide monohydrochloride]
 |  |  | 70 to 90% | N=C(NCCC[C@H](N)C(=O)O)N[N+](=O)[O-] [N-nitro-L-arginine, reference compound]
